From patent publication US6750234B2, “Methods for increasing leptin levels using nicotinic acid compounds” (University of Kentucky Research Foundation, priority 2001, dated 2004)
Like-named read-outs stand apart in the source and are kept apart here.

What was measured:
[1] = test system: leptin; conditions: transgenic mice; cited from earlier work
[2] = test system: leptin; conditions: male BALB/C mice, 4 ml/kg/mouse, vs vehicle
Protocol: The experiments described in example 2 were continued, in the experiment described in this example. Specifically, male BALB/C mice were shaved, from the scapulae to tail bases. The subject animals then received topical application of the lauryl nicotinate ester lotion, described in example 2, supra, or myristyl nicotinate ester lotion, in varying concentrations. Controls received vehicle only. The lotion was applied at a dose of 4 ml/kg/mouse.
Serum leptin levels were measured, as described, supra.

[3] = test system: full thickness wounds; conditions: mice, about 6 mm full thickness wounds, topical 20% lotion, 100 μl twice every day for 14 days, vs lotion without ester
Protocol: Mice were inflicted with full thickness wounds of about 6 mm in diameter, under anesthesia (sodium phenobarbital). They then received topical application of a 20% nicotinate ester lotion, every day, for 14 days. The dosing was 100 μl for each application, with two applications every day. As a control, the lotion without the ester was used. Wound diameter was measured every day.

[4] = test system: leptin; conditions: female apoB/CETP mice
Protocol: Leptin levels in plasma were determined using a commercially available murine leptin radioimmunoassay. The RIA was carried out on fasting (16 h) blood samples obtained from the retroorbital plexus. The blood samples were collected and centrifuged at 2000×g for 15 minutes to secure plasma.

[5] = test system: Human adipocytes; conditions: 0.1 mM niacin, 24 hours, vs cultures without niacin
Protocol: Human adipocytes were obtained in accordance with standard methods. In brief, preadipocytes were collected from subcutaneous adipose tissue, following collagenase treatment. The preadipocytes were plated, and allowed to differentiate for 3 weeks, to form adipocytes.
The adipocytes were then incubated, in 0.6 ml of DMEM/F-10 medium, to which 2% bovine serum albumin was added.
After 24 hours, the culture medium was analyzed for leptin, using a commercially available ELISA kit.

In the case of Cc1cnc(C(=O)O)c[n+]1[O-] [Acipimox], the plasma leptin levels [1] is given as “increase plasma leptin levels”.
With CCCCCCCCCCCCOC(=O)c1cccnc1 [lauryl nicotinate ester] the “increase in serum leptin levels” value ([2]; topical 10% lotion) was 45%, the “reduction of wound thickness” value [3] was 43% and the “amount of circulating leptin (plasma)” value ([4]; topical, 200 mg of 10% (wt/wt) lotion daily for 13 weeks, compared with oral niacin) was “surpassed it in terms of the amount of circulating leptin”.
With CCCCCCCCCCCCCCOC(=O)c1cccnc1 [myristyl nicotinate ester] the “increase in serum leptin levels” value ([2]; topical 2% formulation) was 57% and the “increase in serum leptin levels” value ([2]; topical 5% formulation) was 77%.
For O=C(O)c1cccnc1 [niacin, reference compound], the “increase in leptin production” value [5] was 62% and the “amount of circulating leptin (plasma)” value ([4]; oral, sodium salt 0.75% in drinking water, approx. 1400 mg/kg, fasting (16 h) blood) was “did increase the amount of circulating leptin”.
